Data taken from US20240228468A1, “N-(6-((OCTAHYDROCYCLOPENTA[C]PYRROL-5-YI)AMINO)PYRIDAZIN-3-YL)PHENYL)CARBOXAMIDE AND (6- ((OCTAHYDROCYCLOPENTA[C]PYRROL-5-YL)AMINO)PYRIDAZIN-3-YL)BENZAMIDE DERIVATIVES AS MACHR M4 ANTAGONISTS FOR THE TREATMENT OF NEURODEGENERATIVE DISORDERS” (Vanderbilt University, priority 2021, published 2024).

Target: T1, Human M4 (Homo sapiens, UniProt P08173)
T1 construct: expressed in transfected cells; host or cells: CHO-K1 (ATCC), co-transfected with chimeric G protein Gqi5
T1 sequence (P08173 1-479): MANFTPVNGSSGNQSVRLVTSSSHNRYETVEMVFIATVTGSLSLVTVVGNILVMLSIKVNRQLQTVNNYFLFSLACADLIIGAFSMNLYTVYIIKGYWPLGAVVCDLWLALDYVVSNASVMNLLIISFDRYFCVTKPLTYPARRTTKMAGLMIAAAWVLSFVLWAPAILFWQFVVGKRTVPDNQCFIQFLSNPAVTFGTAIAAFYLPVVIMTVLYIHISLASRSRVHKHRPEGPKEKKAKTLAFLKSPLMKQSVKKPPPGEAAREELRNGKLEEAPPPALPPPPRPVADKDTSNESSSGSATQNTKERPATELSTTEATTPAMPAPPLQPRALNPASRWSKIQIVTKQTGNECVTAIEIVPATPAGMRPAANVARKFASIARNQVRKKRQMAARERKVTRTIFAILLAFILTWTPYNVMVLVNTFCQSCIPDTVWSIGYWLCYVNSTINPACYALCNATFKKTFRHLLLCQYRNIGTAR
Assay: mAChR M4 cell-based functional assay (calcium flux, antagonism of EC80 acetylcholine response)
Conditions: M4/Gqi5/CHO-K1 cells; for remaining activity at 30 µM: % ACh maximum at 30 μM, read-out: Human M4 Emin (% ACh maximum at 30 μM); for IC50: concentration-dependent decrease of the response elicited by an EC80 concentration of acetylcholine
In short: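 CHO-K1 cells stably expressing human M4 with chimeric Gqi5, Fluo-4 loaded; calcium flux read on FDSS. Compound (10-point, 1:3 series) added first, then EC20 acetylcholine at 143 s and EC80 at 268 s. IC50 from concentration-dependent decrease of EC80 response, four-parameter logistic fit.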

| Structure (SMILES) | remaining activity at 30 µM [%] | IC50 [nM] |
| --- | --- | --- |
| CCC(=O)Nc1ccccc1-c1ccc(N[C@H]2C[C@@H]3CN(CC4CCOCC4)C[C@@H]3C2)nn1 [Compound A44, N-(2-(6-(((3aR,5s,6aS)-2-((tetrahydro-2H-pyran-4-yl)methyl)octahydrocyclopenta[c]pyrrol-5-yl)amino)pyridazin-3-yl)phenyl)propionamide] | 4 | 67 |
| CNC(=O)c1ccccc1-c1ccc(N[C@H]2C[C@@H]3CN(CC4CCOCC4)C[C@@H]3C2)nn1 [Compound A45, N-methyl-2-(6-(((3aR,5s,6aS)-2-((tetrahydro-2H-pyran-4-yl)methyl)octahydrocyclopenta[c]pyrrol-5-yl)amino)pyridazin-3-yl)benzamide] | 6 | 180 |
| [2H]C([2H])(C1CCOCC1)N1C[C@H]2C[C@H](Nc3ccc(-c4cccc(C(=O)NCC)c4)nn3)C[C@H]2C1 [Compound A46, N-ethyl-3-(6-(((3aR,5s,6aS)-2-((tetrahydro-2H-pyran-4-yl)methyl-d2)octahydrocyclopenta[c]pyrrol-5-yl)amino)pyridazin-3-yl)benzamide] | 4 | 20 |
| [2H]C([2H])(C1CCOCC1)N1C[C@H]2C[C@H](Nc3ccc(-c4ccccc4C(=O)NC)nn3)C[C@H]2C1 [Compound A48, N-methyl-2-(6-(((3aR,5s,6aS)-2-((tetrahydro-2H-pyran-4-yl)methyl-d2)octahydrocyclopenta[c]pyrrol-5-yl)amino)pyridazin-3-yl)benzamide] | 4 | 74 |
| [2H]C([2H])(C1CCOCC1)N1C[C@H]2C[C@H](Nc3ccc(-c4ccccc4NC(=O)CC)nn3)C[C@H]2C1 [Compound A50, N-(2-(6-(((3aR,5s,6aS)-2-((tetrahydro-2H-pyran-4-yl)methyl-d2)octahydrocyclopenta[c]pyrrol-5-yl)amino)pyridazin-3-yl)phenyl)propionamide] | 4 | 56 |
| CCNC(=O)c1ccc(-c2ccc(N[C@H]3C[C@@H]4CN(CC5CCOCC5)C[C@@H]4C3)nn2)cc1 [Compound A51, N-ethyl-4-(6-(((3aR,5s,6aS)-2-((tetrahydro-2H-pyran-4-yl)methyl)octahydrocyclopenta[c]pyrrol-5-yl)amino)pyridazin-3-yl)benzamide] | 3 | 2.1 |
| [2H]C([2H])(C1CCOCC1)N1C[C@H]2C[C@H](Nc3ccc(-c4ccc(C(=O)NCC)cc4)nn3)C[C@H]2C1 [Compound A52, N-ethyl-4-(6-(((3aR,5s,6aS)-2-((tetrahydro-2H-pyran-4-yl)methyl-d2)octahydrocyclopenta[c]pyrrol-5-yl)amino)pyridazin-3-yl)benzamide] | 5 | 7.8 |
| [2H]C([2H])([2H])NC(=O)c1ccccc1-c1ccc(N[C@H]2C[C@@H]3CN(C([2H])([2H])C4CCOCC4)C[C@@H]3C2)nn1 [Compound A53, N-(methyl-d3)-2-(6-(((3aR,5s,6aS)-2-((tetrahydro-2H-pyran-4-yl)methyl-d2)octahydrocyclopenta[c]pyrrol-5-yl)amino)pyridazin-3-yl)benzamide] | 4 | 200 |
| CCC(=O)Nc1cccc(-c2ccc(N[C@H]3C[C@@H]4CN(CC5CCOCC5)C[C@@H]4C3)nn2)c1 [Compound A56, N-(3-(6-(((3aR,5s,6aS)-2-((tetrahydro-2H-pyran-4-yl)methyl)octahydrocyclopenta[c]pyrrol-5-yl)amino)pyridazin-3-yl)phenyl)propionamide] | 4 | 43 |
| [2H]C([2H])(C1CCOCC1)N1C[C@H]2C[C@H](Nc3ccc(-c4cccc(NC(=O)CC)c4)nn3)C[C@H]2C1 [Compound A57, N-(3-(6-(((3aR,5s,6aS)-2-((tetrahydro-2H-pyran-4-yl)methyl-d2)octahydrocyclopenta[c]pyrrol-5-yl)amino)pyridazin-3-yl)phenyl)propionamide] | 3 | 37 |
| CCNC(=O)c1ccccc1-c1ccc(N[C@H]2C[C@@H]3CN(CC4CCOCC4)C[C@@H]3C2)nn1 [Compound A58, N-ethyl-2-(6-(((3aR,5s,6aS)-2-((tetrahydro-2H-pyran-4-yl)methyl)octahydrocyclopenta[c]pyrrol-5-yl)amino)pyridazin-3-yl)benzamide] | 6 | 200 |
| [2H]C([2H])(C1CCOCC1)N1C[C@H]2C[C@H](Nc3ccc(-c4ccccc4C(=O)NCC)nn3)C[C@H]2C1 [Compound A59, N-ethyl-2-(6-(((3aR,5s,6aS)-2-((tetrahydro-2H-pyran-4-yl)methyl-d2)octahydrocyclopenta[c]pyrrol-5-yl)amino)pyridazin-3-yl)benzamide] | 6 | 170 |
| [2H]C([2H])([2H])NC(=O)c1ccccc1-c1ccc(N[C@H]2C[C@@H]3CN(CC4CCOCC4)C[C@@H]3C2)nn1 [Compound A60, N-(methyl-d3)-2-(6-(((3aR,5s,6aS)-2-((tetrahydro-2H-pyran-4-yl)methyl)octahydrocyclopenta[c]pyrrol-5-yl)amino)pyridazin-3-yl)benzamide] | 6 | 210 |
| [2H]C([2H])([2H])C(=O)Nc1cccc(-c2ccc(N[C@H]3C[C@@H]4CN(CC5CCOCC5)C[C@@H]4C3)nn2)c1 [Compound A61, N-(3-(6-(((3aR,5s,6aS)-2-((tetrahydro-2H-pyran-4-yl)methyl)octahydrocyclopenta[c]pyrrol-5-yl)amino)pyridazin-3-yl)phenyl)acetamide-2,2,2-d3] | 3 | 12 |
| [2H]C([2H])([2H])C(=O)Nc1cccc(-c2ccc(N[C@H]3C[C@@H]4CN(C([2H])([2H])C5CCOCC5)C[C@@H]4C3)nn2)c1 [Compound A62, N-(3-(6-(((3aR,5s,6aS)-2-((tetrahydro-2H-pyran-4-yl)methyl-d2)octahydrocyclopenta[c]pyrrol-5-yl)amino)pyridazin-3-yl)phenyl)acetamide-2,2,2-d3] | 3 | 13 |
| CNC(=O)c1ccc(-c2ccc(N[C@H]3C[C@@H]4CN(CC5CCOCC5)C[C@@H]4C3)nn2)cc1 [Compound A63, N-methyl-4-(6-(((3aR,5s,6aS)-2-((tetrahydro-2H-pyran-4-yl)methyl)octahydrocyclopenta[c]pyrrol-5-yl)amino)pyridazin-3-yl)benzamide] | 3 | 1.2 |
| [2H]C([2H])(C1CCOCC1)N1C[C@H]2C[C@H](Nc3ccc(-c4cc(F)c(C(N)=O)c(F)c4F)nn3)C[C@H]2C1 [Compound A65, 2,3,6-trifluoro-4-(6-(((3aR,5s,6aS)-2-((tetrahydro-2H-pyran-4-yl)methyl-d2)octahydrocyclopenta[c]pyrrol-5-yl)amino)pyridazin-3-yl)benzamide] | 5 | 6.3 |
